The values below come from patent publication US10004701B2, “Methods and compositions for treating infection” (UNIVERSITY OF ROCHESTER, priority 2012, dated 2018).

Structures are written as SMILES. Structures can show the parent of a compound that is named as a salt. Where two headings read alike, the source gives them in different places.

Common to all, as to assay: AK assay 384-well format, Prestwick library screening
Test [1] relates to K. pneumoniae. It counts as cell-based, Klebsiella pneumoniae. As to conditions: 50 μM final drug concentration; for fold induction at 50 µM: Klebsiella pneumoniae, 3 h.
The subject of test [2] is S. aureus strain USA300-0114. It counts as cell-based, Staphylococcus aureus. As to conditions: 50 μM final drug concentration; for fold induction at 50 µM: Staphylococcus aureus, USA300, 3 h.
Test [3] relates to P. aeruginosa. The class given is cell-based, Pseudomonas aeruginosa. As to conditions: 50 μM final drug concentration; for fold induction at 50 µM: Pseudomonas aeruginosa, 3 h.
Test [4] relates to A. baumannii strain 98-37-09. It counts as cell-based, Acinetobacter baumannii. As to conditions: 50 μM final drug concentration; for fold induction at 50 µM: Acinetobacter baumannii, 983709, 3 h.
For test [5], the system named is E. coli. The class given is cell-based, Escherichia coli. The conditions noted are these: 50 μM final drug concentration; for fold induction at 50 µM: Escherichia coli, 3 h.
The test system of test [6] is E. cloacae. The class given is cell-based, Enterobacter cloacae. The conditions noted are these: 50 μM final drug concentration; for fold induction at 50 µM: Enterobacter cloacae, 3 h.
Test [7] relates to E. faecium. It counts as cell-based, Enterococcus faecium. The conditions noted are these: 50 μM final drug concentration; for fold induction at 50 µM: Enterococcus faecium, 3 h.
The mark [8] stands for this setting: planktonic K. pneumoniae, 384-well, cutoff for positive-scoring molecules 3-fold increase, read-out: AK-based Prestwick Library Screening Results: K. pneumoniae (increase in extracellular AK activity).
Setting [9] is: planktonic S. aureus, 384-well, cutoff for positive-scoring molecules 3-fold increase, read-out: AK-based Prestwick Library Screening Results: S. aureus (increase in extracellular AK activity).
The mark [10] stands for this setting: planktonic P. aeruginosa, 384-well, cutoff for positive-scoring molecules 3-fold increase, read-out: AK-based Prestwick Library Screening Results: P. aeruginosa (increase in extracellular AK activity).
The mark [11] stands for this setting: planktonic A. baumannii, 384-well, cutoff for positive-scoring molecules 3-fold increase, read-out: AK-based Prestwick Library Screening Results: A. baumannii (increase in extracellular AK activity).
Where [12] appears, read: planktonic E. coli, 384-well, cutoff for positive-scoring molecules 3-fold increase, read-out: AK-based Prestwick Library Screening Results: E. coli (increase in extracellular AK activity).
The mark [13] stands for this setting: planktonic E. cloacae, 384-well, cutoff for positive-scoring molecules 3-fold increase, read-out: AK-based Prestwick Library Screening Results: E. cloacae (increase in extracellular AK activity).
Setting [14] is: planktonic E. faecium, 384-well, cutoff for positive-scoring molecules 3-fold increase, read-out: AK-based Prestwick Library Screening Results: E. faecium (increase in extracellular AK activity).

Turning to `NS(=O)(=O)c1cc2c(cc1Cl)NC(CC1CCCC1)NS2(=O)=O` (centres unmarked) [Cyclopenthiazide], the fold induction at 50 µM turned out to be 0.8 in test [1] (planktonic K. pneumoniae, positive cutoff 3-fold increase, read-out: AK-based Prestwick library screening result, K. pneumoniae (fold increase in extracellular AK activity)); 0.7 in test [2] (planktonic S. aureus, positive cutoff 3-fold increase, read-out: AK-based Prestwick library screening result, S. aureus (fold increase in extracellular AK activity)); 0.8 in test [3] (planktonic P. aeruginosa, positive cutoff 3-fold increase, read-out: AK-based Prestwick library screening result, P. aeruginosa (fold increase in extracellular AK activity)); 0.8 in test [4] (planktonic A. baumannii, positive cutoff 3-fold increase, read-out: AK-based Prestwick library screening result, A. baumannii (fold increase in extracellular AK activity)); 0.8 in test [5] (planktonic E. coli, positive cutoff 3-fold increase, read-out: AK-based Prestwick library screening result, E. coli (fold increase in extracellular AK activity)); 1.2 in test [6] (planktonic E. cloacae, positive cutoff 3-fold increase, read-out: AK-based Prestwick library screening result, E. cloacae (fold increase in extracellular AK activity)). In addition, in test [7] (planktonic E. faecium, positive cutoff 3-fold increase, read-out: AK-based Prestwick library screening result, E. faecium (fold increase in extracellular AK activity)), the fold induction at 50 µM worked out at 0.9.

With `COc1ccc(CN2CCNCC2)c(OC)c1OC` [Trimetazidine dihydrochloride], the fold induction at 50 µM was found to be 1.1 in test [1] (planktonic, cutoff for positive 3-fold increase, read-out: AK-based Prestwick Library Screening Results, K. pneumoniae (fold increase in extracellular AK activity)); 1.2 in test [2] (planktonic, cutoff for positive 3-fold increase, read-out: AK-based Prestwick Library Screening Results, S. aureus (fold increase in extracellular AK activity)); 1.1 in test [3] (planktonic, cutoff for positive 3-fold increase, read-out: AK-based Prestwick Library Screening Results, P. aeruginosa (fold increase in extracellular AK activity)); 1.2 in test [4] (planktonic, cutoff for positive 3-fold increase, read-out: AK-based Prestwick Library Screening Results, A. baumannii (fold increase in extracellular AK activity)); 1.4 in test [5] (planktonic, cutoff for positive 3-fold increase, read-out: AK-based Prestwick Library Screening Results, E. coli (fold increase in extracellular AK activity)); 1.7 in test [6] (planktonic, cutoff for positive 3-fold increase, read-out: AK-based Prestwick Library Screening Results, E. cloacae (fold increase in extracellular AK activity)). Also, the fold induction at 50 µM in test [7] (planktonic, cutoff for positive 3-fold increase, read-out: AK-based Prestwick Library Screening Results, E. faecium (fold increase in extracellular AK activity)) is 1.

In the case of `COc1ccn(C)c(=O)c1C#N` [Ricinine], the fold induction at 50 µM turned out to be 0.8 in test [1] (planktonic, […], read-out: AK-based Prestwick Library Screening Results, K. pneumoniae (fold increase in extracellular AK activity)); 0.9 in test [2] (planktonic, […], read-out: AK-based Prestwick Library Screening Results, S. aureus (fold increase in extracellular AK activity)); 0.7 in test [3] (planktonic, […], read-out: AK-based Prestwick Library Screening Results, P. aeruginosa (fold increase in extracellular AK activity)); 0.8 in test [4] (planktonic, […], read-out: AK-based Prestwick Library Screening Results, A. baumannii (fold increase in extracellular AK activity)); 0.8 in test [5] (planktonic, […], read-out: AK-based Prestwick Library Screening Results, E. coli (fold increase in extracellular AK activity)); 1.3 in test [6] (planktonic, […], read-out: AK-based Prestwick Library Screening Results, E. cloacae (fold increase in extracellular AK activity)). In addition, the fold induction at 50 µM in test [7] (planktonic, […], read-out: AK-based Prestwick Library Screening Results, E. faecium (fold increase in extracellular AK activity)) was 0.9.

Consider `CNC(=O)c1c(I)c(C(=O)NCC(=O)Nc2c(I)c(C(=O)O)c(I)c(C(=O)NCCO)c2I)c(I)c(N(C)C(C)=O)c1I` [loxaglic acid], for which, in test [1] (planktonic K. pneumoniae, positive cutoff 3-fold increase), the “AK-based Prestwick library screening result, K. pneumoniae (fold increase in extracellular AK activity)” value was 0.8. In addition, in test [2] (planktonic S. aureus, positive cutoff 3-fold increase), the “AK-based Prestwick library screening result, S. aureus (fold increase in extracellular AK activity)” value worked out at 0.6. Further, the “AK-based Prestwick library screening result, P. aeruginosa (fold increase in extracellular AK activity)” value in test [3] (planktonic P. aeruginosa, positive cutoff 3-fold increase) was determined as 0.8. Besides, the “AK-based Prestwick library screening result, A. baumannii (fold increase in extracellular AK activity)” value in test [4] (planktonic A. baumannii, positive cutoff 3-fold increase) is reported as 0.8. For the same molecule, the “AK-based Prestwick library screening result, E. coli (fold increase in extracellular AK activity)” value in test [5] (planktonic E. coli, […]) turned out to be 0.9. In addition, the “AK-based Prestwick library screening result, E. cloacae (fold increase in extracellular AK activity)” value in test [6] (planktonic E. cloacae, positive cutoff 3-fold increase) worked out at 1.1. The “AK-based Prestwick library screening result, E. faecium (fold increase in extracellular AK activity)” value in test [7] (planktonic E. faecium, positive cutoff 3-fold increase) turned out to be 0.9.

Take `C[C@@H]1C[C@@H]([C@H](O)CC2CC(=O)NC(=O)C2)C(=O)[C@@H](C)C1` [Cycloheximide]: the fold induction at 50 µM is 1 in test [1] ([…], read-out: AK-based Prestwick Library Screening Results, K. pneumoniae (fold increase in extracellular AK activity)); 1.1 in test [2] ([…], read-out: AK-based Prestwick Library Screening Results, S. aureus (fold increase in extracellular AK activity)); 1.1 in test [3] ([…], read-out: AK-based Prestwick Library Screening Results, P. aeruginosa (fold increase in extracellular AK activity)); 1.2 in test [4] ([…], read-out: AK-based Prestwick Library Screening Results, A. baumannii (fold increase in extracellular AK activity)); 1.3 in test [5] ([…], read-out: AK-based Prestwick Library Screening Results, E. coli (fold increase in extracellular AK activity)); 0.9 in test [6] ([…], read-out: AK-based Prestwick Library Screening Results, E. cloacae (fold increase in extracellular AK activity)). Moreover, in test [7] ([…], read-out: AK-based Prestwick Library Screening Results, E. faecium (fold increase in extracellular AK activity)), the fold induction at 50 µM is 1.

`CCCNC(=O)NS(=O)(=O)c1ccc(Cl)cc1` [Chlorpropamide]: the fold induction at 50 µM in test [1] (setting [8]) was found to be 0.4; in test [2] (setting [9]), 0.4; in test [3] (setting [10]), 0.3; in test [4] (setting [11]), 0.3; in test [5] (setting [12]) it was 0.4; in test [6] (setting [13]) it was 0.3. Further, the fold induction at 50 µM in test [7] (setting [14]) came out at 0.9.

In the case of `Cc1cccc(Nc2ccccc2C(=O)O)c1C` [Mefenamic acid], the fold induction at 50 µM in test [1] (setting [8]) was 0.8; in test [2] (setting [9]) it was 0.7; in test [3] (setting [10]), 0.9; in test [4] (setting [11]), 1.2; in test [5] (setting [12]), 0.9; in test [6] (setting [13]), 1.6. The fold induction at 50 µM in test [7] (setting [14]) worked out at 0.9.

`Fc1ccc([C@@H]2CCNC[C@H]2COc2ccc3c(c2)OCO3)cc1` [Paroxetine Hydrochloride]: the fold induction at 50 µM in test [1] (cutoff for positive-scoring molecules 3-fold increase, read-out: AK-based Prestwick Library Screening Results, K. pneumoniae (fold increase in extracellular AK activity)) came to 1.2; in test [2] (cutoff for positive-scoring molecules 3-fold increase, read-out: AK-based Prestwick Library Screening Results, S. aureus (fold increase in extracellular AK activity)) it was 1.4; in test [3] (cutoff for positive-scoring molecules 3-fold increase, read-out: AK-based Prestwick Library Screening Results, P. aeruginosa (fold increase in extracellular AK activity)), 1.3; in test [4] (cutoff for positive-scoring molecules 3-fold increase, read-out: AK-based Prestwick Library Screening Results, A. baumannii (fold increase in extracellular AK activity)), 1.3; in test [5] (cutoff for positive-scoring molecules 3-fold increase, read-out: AK-based Prestwick Library Screening Results, E. coli (fold increase in extracellular AK activity)), 1.4; in test [6] (cutoff for positive-scoring molecules 3-fold increase, read-out: AK-based Prestwick Library Screening Results, E. cloacae (fold increase in extracellular AK activity)), 1.6. The fold induction at 50 µM in test [7] (cutoff for positive-scoring molecules 3-fold increase, read-out: AK-based Prestwick Library Screening Results, E. faecium (fold increase in extracellular AK activity)) was determined as 0.9.
